Data: patent US20230023092A1, “TREATMENT OF DEPRESSION AND OTHER VARIOUS DISORDERS WITH PSILOCYBIN” (COMPASS […], priority 2019, published 2023)

Legend:
[1] = system: healthy subjects; test: NEO-Five Factor Inventory (NEO-FFI); type: in vivo, human
Procedure: In some embodiments, the NEO-Five Factor Inventory (NEO-FFI) test is used to evaluate the safety and/or efficacy of psilocybin. The NEO-FFI evaluates 5 broad domains of personality—Neuroticism, Extroversion, Openness, Agreeableness and Conscientiousness.
The Neuroticism Extraversion Openness-Five Factor Inventory (NEO-FFI) and Symptom Checklist-90 Item (SCL-90) were administered. Details of the MMRM applied to the change from baseline scores for the NEO-FFI and SCL-90 are provided below in Table 2Q.

[2] = system: healthy subjects; test: Five-Dimensional Altered States of Consciousness (5D-ASC) questionnaire; type: in vivo, human; settings: for 5D-ASC Anxiety, Mean / 5D-ASC Audio-visual synaesthesia, Mean / 5D-ASC Auditory alteration, Mean / 5D-ASC Blissful state, Mean / 5D-ASC Changed meaning of percepts, Mean / 5D-ASC Complex imagery, Mean / 5D-ASC Disembodiment, Mean / 5D-ASC Dread of ego dissolution, Mean / 5D-ASC Elementary imagery, Mean / 5D-ASC Experience of unity, Mean / 5D-ASC Impaired control and cognition, Mean / 5D-ASC Insightfulness, Mean / 5D-ASC Oceanic boundlessness, Mean / 5D-ASC Spiritual experience, Mean / 5D-ASC Vigilance reduction, Mean / 5D-ASC Visual restructuralisation, Mean: Post-Treatment Day 0, LS mean; for 5D-ASC Anxiety, Mean difference / 5D-ASC Audio-visual synaesthesia, Mean difference / 5D-ASC Auditory alteration, Mean difference / 5D-ASC Blissful state, Mean difference / 5D-ASC Changed meaning of percepts, Mean difference / 5D-ASC Complex imagery, Mean difference / 5D-ASC Disembodiment, Mean difference / 5D-ASC Dread of ego dissolution, Mean difference / 5D-ASC Elementary imagery, Mean difference / 5D-ASC Experience of unity, Mean difference / 5D-ASC Impaired control and cognition, Mean difference / 5D-ASC Insightfulness, Mean difference / 5D-ASC Oceanic boundlessness, Mean difference / 5D-ASC Spiritual experience, Mean difference / 5D-ASC Vigilance reduction, Mean difference / 5D-ASC Visual restructuralisation, Mean difference: Post-Treatment Day 0
Text: In some embodiments, the Five Dimension Altered States of Consciousness questionnaire (5D-ASC) is utilized to evaluate the safety and/or efficacy of psilocybin. […] The 5 dimensions include oceanic boundlessness, anxious ego dissolution, visionary restructuralization, auditory alterations and reduction of vigilance.

[3] = Day 7, psilocybin 10 mg - placebo
[4] = Day 7, psilocybin 25 mg - 10 mg
[5] = Day 7, psilocybin 25 mg - placebo
[6] = Day 84, psilocybin 10 mg - placebo
[7] = Day 84, psilocybin 25 mg - 10 mg
[8] = Day 84, psilocybin 25 mg - placebo

Compound: CN(C)CCc1c[nH]c2cccc(OP(=O)(O)O)c12 [Psilocybin, psilocybin]
- NEO agreeableness change from baseline, LS mean ([1]; Day 7, psilocybin 10 mg): −0.2
- NEO conscientiousness change from baseline, LS mean ([1]; Day 7, psilocybin 10 mg): −0.1
- NEO extraversion change from baseline, LS mean ([1]; Day 7, psilocybin 10 mg): 0.3
- NEO neuroticism change from baseline, LS mean ([1]; Day 7, psilocybin 10 mg): 0.2
- NEO openness change from baseline, LS mean ([1]; Day 7, psilocybin 10 mg): 0.3
- NEO agreeableness change from baseline, LS mean difference [1, 3]: −0.4
- NEO conscientiousness change from baseline, LS mean difference [1, 3]: 0.4
- NEO extraversion change from baseline, LS mean difference [1, 3]: 0.4
- NEO neuroticism change from baseline, LS mean difference [1, 3]: −0.2
- NEO openness change from baseline, LS mean difference [1, 3]: 1.1
- NEO agreeableness change from baseline, LS mean ([1]; Day 7, psilocybin 25 mg): 0.1
- NEO conscientiousness change from baseline, LS mean ([1]; Day 7, psilocybin 25 mg): 0.1
- NEO extraversion change from baseline, LS mean ([1]; Day 7, psilocybin 25 mg): 0.3
- NEO neuroticism change from baseline, LS mean ([1]; Day 7, psilocybin 25 mg): 0.2
- NEO openness change from baseline, LS mean ([1]; Day 7, psilocybin 25 mg): 0.4
- NEO agreeableness change from baseline, LS mean difference [1, 4]: 0.4
- NEO conscientiousness change from baseline, LS mean difference [1, 4]: 0.3
- NEO extraversion change from baseline, LS mean difference [1, 4]: 0.1
- NEO neuroticism change from baseline, LS mean difference [1, 4]: −0.0
- NEO openness change from baseline, LS mean difference [1, 4]: 0.1
- NEO agreeableness change from baseline, LS mean difference [1, 5]: −0.1
- NEO conscientiousness change from baseline, LS mean difference [1, 5]: 0.7
- NEO extraversion change from baseline, LS mean difference [1, 5]: 0.5
- NEO neuroticism change from baseline, LS mean difference [1, 5]: 0.2
- NEO openness change from baseline, LS mean difference [1, 5]: 1.2
- NEO agreeableness change from baseline, LS mean ([1]; Day 84, psilocybin 10 mg): −0.9
- NEO conscientiousness change from baseline, LS mean ([1]; Day 84, psilocybin 10 mg): −1.3
- NEO extraversion change from baseline, LS mean ([1]; Day 84, psilocybin 10 mg): −0.9
- NEO neuroticism change from baseline, LS mean ([1]; Day 84, psilocybin 10 mg): 2.1
- NEO openness change from baseline, LS mean ([1]; Day 84, psilocybin 10 mg): 0.4
- NEO agreeableness change from baseline, LS mean difference [1, 6]: −0.8
- NEO conscientiousness change from baseline, LS mean difference [1, 6]: 0.2
- NEO extraversion change from baseline, LS mean difference [1, 6]: −0.7
- NEO neuroticism change from baseline, LS mean difference [1, 6]: 0.3
- NEO openness change from baseline, LS mean difference [1, 6]: 1.1
- NEO agreeableness change from baseline, LS mean ([1]; Day 84, psilocybin 25 mg): −0.9
- NEO conscientiousness change from baseline, LS mean ([1]; Day 84, psilocybin 25 mg): −0.1
- NEO extraversion change from baseline, LS mean ([1]; Day 84, psilocybin 25 mg): −0.7
- NEO neuroticism change from baseline, LS mean ([1]; Day 84, psilocybin 25 mg): 0.8
- NEO openness change from baseline, LS mean ([1]; Day 84, psilocybin 25 mg): 0.3
- NEO agreeableness change from baseline, LS mean difference [1, 7]: 0.1
- NEO conscientiousness change from baseline, LS mean difference [1, 7]: 1.2
- NEO extraversion change from baseline, LS mean difference [1, 7]: 0.2
- NEO neuroticism change from baseline, LS mean difference [1, 7]: −1.3
- NEO openness change from baseline, LS mean difference [1, 7]: −0.7
- NEO agreeableness change from baseline, LS mean difference [1, 8]: −0.7
- NEO conscientiousness change from baseline, LS mean difference [1, 8]: 1.4
- NEO extraversion change from baseline, LS mean difference [1, 8]: −0.5
- NEO neuroticism change from baseline, LS mean difference [1, 8]: −1.0
- NEO openness change from baseline, LS mean difference [1, 8]: 0.4
- 5D-ASC Anxiety, Mean ([2]; Psilocybin 10 mg): 15.7
- 5D-ASC Audio-visual synaesthesia, Mean ([2]; Psilocybin 10 mg): 74.7
- 5D-ASC Auditory alteration, Mean ([2]; Psilocybin 10 mg): 20.3
- 5D-ASC Blissful state, Mean ([2]; Psilocybin 10 mg): 59.1
- 5D-ASC Changed meaning of percepts, Mean ([2]; Psilocybin 10 mg): 46.6
- 5D-ASC Complex imagery, Mean ([2]; Psilocybin 10 mg): 53.0
- 5D-ASC Disembodiment, Mean ([2]; Psilocybin 10 mg): 52.7
- 5D-ASC Dread of ego dissolution, Mean ([2]; Psilocybin 10 mg): 21.7
- 5D-ASC Elementary imagery, Mean ([2]; Psilocybin 10 mg): 76.5
- 5D-ASC Experience of unity, Mean ([2]; Psilocybin 10 mg): 54.4
- 5D-ASC Impaired control and cognition, Mean ([2]; Psilocybin 10 mg): 27.9
- 5D-ASC Insightfulness, Mean ([2]; Psilocybin 10 mg): 53.9
- 5D-ASC Oceanic boundlessness, Mean ([2]; Psilocybin 10 mg): 55.7
- 5D-ASC Spiritual experience, Mean ([2]; Psilocybin 10 mg): 48.7
- 5D-ASC Vigilance reduction, Mean ([2]; Psilocybin 10 mg): 35.3
- 5D-ASC Visual restructuralisation, Mean ([2]; Psilocybin 10 mg): 59.1
- 5D-ASC Anxiety, Mean difference ([2]; Psilocybin 10 mg-Placebo): 14.6
- 5D-ASC Audio-visual synaesthesia, Mean difference ([2]; Psilocybin 10 mg-Placebo): 66.6
- 5D-ASC Auditory alteration, Mean difference ([2]; Psilocybin 10 mg-Placebo): 18.6
- 5D-ASC Blissful state, Mean difference ([2]; Psilocybin 10 mg-Placebo): 50.9
- 5D-ASC Changed meaning of percepts, Mean difference ([2]; Psilocybin 10 mg-Placebo): 44.4
- 5D-ASC Complex imagery, Mean difference ([2]; Psilocybin 10 mg-Placebo): 48.6
- 5D-ASC Disembodiment, Mean difference ([2]; Psilocybin 10 mg-Placebo): 45.8
- 5D-ASC Dread of ego dissolution, Mean difference ([2]; Psilocybin 10 mg-Placebo): 20.5
- 5D-ASC Elementary imagery, Mean difference ([2]; Psilocybin 10 mg-Placebo): 63.6
- 5D-ASC Experience of unity, Mean difference ([2]; Psilocybin 10 mg-Placebo): 47.1
- 5D-ASC Impaired control and cognition, Mean difference ([2]; Psilocybin 10 mg-Placebo): 26.2
- 5D-ASC Insightfulness, Mean difference ([2]; Psilocybin 10 mg-Placebo): 47.6
- 5D-ASC Oceanic boundlessness, Mean difference ([2]; Psilocybin 10 mg-Placebo): 47.7
- 5D-ASC Spiritual experience, Mean difference ([2]; Psilocybin 10 mg-Placebo): 44.6
- 5D-ASC Vigilance reduction, Mean difference ([2]; Psilocybin 10 mg-Placebo): 20.0
- 5D-ASC Visual restructuralisation, Mean difference ([2]; Psilocybin 10 mg-Placebo): 52.6
- 5D-ASC Anxiety, Mean ([2]; Psilocybin 25 mg): 32.4
- 5D-ASC Audio-visual synaesthesia, Mean ([2]; Psilocybin 25 mg): 75.4
- 5D-ASC Auditory alteration, Mean ([2]; Psilocybin 25 mg): 30.7
- 5D-ASC Blissful state, Mean ([2]; Psilocybin 25 mg): 61.9
- 5D-ASC Changed meaning of percepts, Mean ([2]; Psilocybin 25 mg): 46.1
- 5D-ASC Complex imagery, Mean ([2]; Psilocybin 25 mg): 64.9
- 5D-ASC Disembodiment, Mean ([2]; Psilocybin 25 mg): 53.8
- 5D-ASC Dread of ego dissolution, Mean ([2]; Psilocybin 25 mg): 31.9
- 5D-ASC Elementary imagery, Mean ([2]; Psilocybin 25 mg): 76.9
- 5D-ASC Experience of unity, Mean ([2]; Psilocybin 25 mg): 60.9
- 5D-ASC Impaired control and cognition, Mean ([2]; Psilocybin 25 mg): 32.7
- 5D-ASC Insightfulness, Mean ([2]; Psilocybin 25 mg): 64.4
- 5D-ASC Oceanic boundlessness, Mean ([2]; Psilocybin 25 mg): 62.9
- 5D-ASC Spiritual experience, Mean ([2]; Psilocybin 25 mg): 57.9
- 5D-ASC Vigilance reduction, Mean ([2]; Psilocybin 25 mg): 45.7
- 5D-ASC Visual restructuralisation, Mean ([2]; Psilocybin 25 mg): 65.2
- 5D-ASC Anxiety, Mean difference ([2]; Psilocybin 25 mg-10 mg): 16.7
- 5D-ASC Audio-visual synaesthesia, Mean difference ([2]; Psilocybin 25 mg-10 mg): 0.7
- 5D-ASC Auditory alteration, Mean difference ([2]; Psilocybin 25 mg-10 mg): 10.5
- 5D-ASC Blissful state, Mean difference ([2]; Psilocybin 25 mg-10 mg): 2.8
- 5D-ASC Changed meaning of percepts, Mean difference ([2]; Psilocybin 25 mg-10 mg): −0.5
- 5D-ASC Complex imagery, Mean difference ([2]; Psilocybin 25 mg-10 mg): 11.9
- 5D-ASC Disembodiment, Mean difference ([2]; Psilocybin 25 mg-10 mg): 1.1
- 5D-ASC Dread of ego dissolution, Mean difference ([2]; Psilocybin 25 mg-10 mg): 10.1
- 5D-ASC Elementary imagery, Mean difference ([2]; Psilocybin 25 mg-10 mg): 0.4
- 5D-ASC Experience of unity, Mean difference ([2]; Psilocybin 25 mg-10 mg): 6.5
- 5D-ASC Impaired control and cognition, Mean difference ([2]; Psilocybin 25 mg-10 mg): 4.7
- 5D-ASC Insightfulness, Mean difference ([2]; Psilocybin 25 mg-10 mg): 10.5
- 5D-ASC Oceanic boundlessness, Mean difference ([2]; Psilocybin 25 mg-10 mg): 7.2
- 5D-ASC Spiritual experience, Mean difference ([2]; Psilocybin 25 mg-10 mg): 9.2
- 5D-ASC Vigilance reduction, Mean difference ([2]; Psilocybin 25 mg-10 mg): 10.3
- 5D-ASC Visual restructuralisation, Mean difference ([2]; Psilocybin 25 mg-10 mg): 6.1
- 5D-ASC Anxiety, Mean difference ([2]; Psilocybin 25 mg-Placebo): 31.3
- 5D-ASC Audio-visual synaesthesia, Mean difference ([2]; Psilocybin 25 mg-Placebo): 67.3
- 5D-ASC Auditory alteration, Mean difference ([2]; Psilocybin 25 mg-Placebo): 29.1
- 5D-ASC Blissful state, Mean difference ([2]; Psilocybin 25 mg-Placebo): 53.6
- 5D-ASC Changed meaning of percepts, Mean difference ([2]; Psilocybin 25 mg-Placebo): 43.9
- 5D-ASC Complex imagery, Mean difference ([2]; Psilocybin 25 mg-Placebo): 60.5
- 5D-ASC Disembodiment, Mean difference ([2]; Psilocybin 25 mg-Placebo): 46.9
- 5D-ASC Dread of ego dissolution, Mean difference ([2]; Psilocybin 25 mg-Placebo): 30.6
- 5D-ASC Elementary imagery, Mean difference ([2]; Psilocybin 25 mg-Placebo): 64.0
- 5D-ASC Experience of unity, Mean difference ([2]; Psilocybin 25 mg-Placebo): 53.6
- 5D-ASC Impaired control and cognition, Mean difference ([2]; Psilocybin 25 mg-Placebo): 30.9
- 5D-ASC Insightfulness, Mean difference ([2]; Psilocybin 25 mg-Placebo): 58.2
- 5D-ASC Oceanic boundlessness, Mean difference ([2]; Psilocybin 25 mg-Placebo): 54.9
- 5D-ASC Spiritual experience, Mean difference ([2]; Psilocybin 25 mg-Placebo): 53.7
- 5D-ASC Vigilance reduction, Mean difference ([2]; Psilocybin 25 mg-Placebo): 30.4
- 5D-ASC Visual restructuralisation, Mean difference ([2]; Psilocybin 25 mg-Placebo): 58.7
